Assay [1] relates to IL-2 secretion by human effector memory T cells (TEM). Kind of assay: Effector memory T cells IL-2 release assay (CD3/CD28 stimulation, HTRF IL-2 detection). The class given is cell-based. The following applies: Homo sapiens, T-cell, 24 h. An outline of the steps:
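IL-2 released into the supernatant was quantified by HTRF after 24 h at 37 °C in 5% CO2. The cells were stimulated primary human TEM from donor buffy coats, treated with a 10-point semi-log compound series (0.1% DMSO final, triplicates).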
(In general: TR-FRET usually uses a lanthanide donor and a delayed reading to cut background.)

The target of assay [2] is T1, Recombinant human PKC-theta (His-tagged 362-706) (Homo sapiens, UniProt Q04759).
T1 construct: Recombinant human PKC-theta (His-tagged 362-706); His
Kind of assay: PKC-theta inhibition assay (HTRF KinEASE kit). The following applies: ATP 6.5 μM, STK substrate 525 nM. The class given is biochemical. The essentials: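 IC50 values were from 4-parameter logistic fits of percent inhibition, based on acceptor/donor HTRF ratios over 10 semi-log compound doses. Kinase reactions, started with substrate plus ATP, ran 30 min at 25 °C in buffer supplemented with 10 mM MgCl2, 1 mM DTT and 0.1% Tween 20; detection lasted 2 h.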

The target in assay [3] is T2, Recombinant human PKC-delta (His-tagged 345-676) (Homo sapiens, UniProt Q05655).
T2 construct: PKC-delta (His-tagged 345-676); His
Put plainly: PKC-delta inhibition assay (HTRF KinEASE kit). The class given is biochemical. As to conditions: ratio, PKC-theta vs PKC-delta HTRF; for PKC-theta/PKC-delta selectivity (binned): binned A to G.
Experimental: PKC-theta and PKC-delta biochemical activities were measured using the PKC-theta HTRF KinEASEkit kit, according to manufacturer's instructions (Cisbio, catalogue number 61ST1PEJ). Briefly, the kinase buffer component of the kit was supplemented with 10 mM MgCl2, 1 mM DTT and 0.1% Tween 20. […] The streptavidin_XL665 and STK antibody-cryptate detection reagents were mixed according to the manufacturer's instructions. Test compounds were diluted in DMSO in a series of 10 semi-log step doses; 10 nL of each compound dose were dispensed in 384 well plates. […] The reaction was started by addition of the substrate and ATP and incubated at 25° C. for 30 minutes or 20 minutes for the PKC-theta and PKC-delta assays, respectively. The detection reagents were added, and the plate was incubated in the dark for 2 hours. […] The ratio of acceptor and donor emission signals was calculated for each well.

Setting [4] is: binned A to G, read-out: PKC-theta IL2 pIC50 (binned) (converted).
[5] abbreviates: read-out: PKC-theta IL2 pIC50 (converted).
The mark [6] stands for this setting: binned A to H, read-out: PKC-theta HTRF pIC50 (binned) (converted).
Where [7] appears, read: read-out: PKC-theta HTRF pIC50 (converted).

SMILES strings stand for the structures. Where two headings read alike, the source gives them in different places.

We go through 3 molecules from patent publication US20260035367A1 (Celgene Corporation, priority 2021, published 2026).

T2 sequence (Q05655 345-676): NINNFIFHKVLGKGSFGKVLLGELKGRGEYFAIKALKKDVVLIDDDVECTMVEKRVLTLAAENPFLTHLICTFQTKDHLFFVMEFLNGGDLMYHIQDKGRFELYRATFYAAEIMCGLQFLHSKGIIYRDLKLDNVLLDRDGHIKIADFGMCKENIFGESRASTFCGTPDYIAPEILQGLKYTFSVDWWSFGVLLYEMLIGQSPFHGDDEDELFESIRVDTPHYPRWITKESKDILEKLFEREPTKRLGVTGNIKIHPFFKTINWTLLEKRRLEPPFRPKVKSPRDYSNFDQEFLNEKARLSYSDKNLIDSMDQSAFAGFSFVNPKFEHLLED
T1 sequence (Q04759 362-706): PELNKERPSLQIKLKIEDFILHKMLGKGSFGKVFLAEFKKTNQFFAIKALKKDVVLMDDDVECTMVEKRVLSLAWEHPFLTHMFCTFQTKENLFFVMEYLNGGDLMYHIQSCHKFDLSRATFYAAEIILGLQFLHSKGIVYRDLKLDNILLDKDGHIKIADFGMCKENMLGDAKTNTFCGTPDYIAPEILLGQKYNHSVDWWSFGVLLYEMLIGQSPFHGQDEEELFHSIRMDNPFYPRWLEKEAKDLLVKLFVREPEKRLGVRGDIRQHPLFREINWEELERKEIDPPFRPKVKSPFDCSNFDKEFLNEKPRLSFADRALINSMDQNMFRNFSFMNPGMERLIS

`C[C@@H]1CNCCN(c2cc(C(F)(F)F)cc(-c3ccnc4c3C(C)(C)C(=O)N4)n2)C1` [Example 182]: the IC50 in assay [1] (setting [4]) was 100 to 316 nM; in assay [1] (setting [5]), 158 nM; in assay [2] (setting [6]), 3.16 to 10 nM; in assay [2] (setting [7]), 7.94 nM. Also, the PKC-theta/PKC-delta selectivity in assay [3] is listed as 25. Also, in assay [3], the “PKC-theta/PKC-delta selectivity (binned)” value was “C (a ratio of between 20 and 30)”.

`CCC1(C)C(=O)Nc2nccc(-c3cc(F)cc(N4CCNCC4)c3)c21` (stereo not drawn) [Example 33]: the IC50 in assay [1] (setting [4]) was 316 to 1000 nM; in assay [1] (setting [5]) it was 794 nM; in assay [2] (setting [6]), 31.6 to 100 nM; in assay [2] (setting [7]) it was 50.1 nM. In assay [3], the PKC-theta/PKC-delta selectivity was 2. For the same molecule, the “PKC-theta/PKC-delta selectivity (binned)” value in assay [3] is “F (a ratio of between 1 and 5)”.

In the case of `C[C@H](O)[C@@H]1CN(c2cc(C(F)(F)F)cc(-c3ccnc4c3C(C)(C)C(=O)N4)n2)CCN1` [Example 121], the IC50 in assay [1] (setting [4]) is 316 to 1000 nM; in assay [1] (setting [5]), 631 nM; in assay [2] (setting [6]), 10 to 31.6 nM; in assay [2] (setting [7]), 25.1 nM. The PKC-theta/PKC-delta selectivity in assay [3] is given as 12. Further, in assay [3], the “PKC-theta/PKC-delta selectivity (binned)” value is “D (a ratio of between 10 and 20)”.
